This is an account of results in patent US20040209914A1, “Aromatic sulfone hydroxamic acids and their use as protease inhibitors” (priority 2000, published 2004).

What is called IC50 is the concentration at which inhibition is half-maximal.

Where two headings read alike, the source gives them in different places. Bounds are passed on as bounds.

Experiment [1] relates to solid tumor cancers (colorectal, pancreatic, ovarian, and prostate). Conditions: patients with advanced, rapidly progressive, treatment-refractory solid tumor cancers; cited from earlier work.
The target of the next experiment is T1, Recombinant human MMP-2 (Homo sapiens, UniProt P08253).
T1 construct: made in house
T1 sequence (P08253 110-660): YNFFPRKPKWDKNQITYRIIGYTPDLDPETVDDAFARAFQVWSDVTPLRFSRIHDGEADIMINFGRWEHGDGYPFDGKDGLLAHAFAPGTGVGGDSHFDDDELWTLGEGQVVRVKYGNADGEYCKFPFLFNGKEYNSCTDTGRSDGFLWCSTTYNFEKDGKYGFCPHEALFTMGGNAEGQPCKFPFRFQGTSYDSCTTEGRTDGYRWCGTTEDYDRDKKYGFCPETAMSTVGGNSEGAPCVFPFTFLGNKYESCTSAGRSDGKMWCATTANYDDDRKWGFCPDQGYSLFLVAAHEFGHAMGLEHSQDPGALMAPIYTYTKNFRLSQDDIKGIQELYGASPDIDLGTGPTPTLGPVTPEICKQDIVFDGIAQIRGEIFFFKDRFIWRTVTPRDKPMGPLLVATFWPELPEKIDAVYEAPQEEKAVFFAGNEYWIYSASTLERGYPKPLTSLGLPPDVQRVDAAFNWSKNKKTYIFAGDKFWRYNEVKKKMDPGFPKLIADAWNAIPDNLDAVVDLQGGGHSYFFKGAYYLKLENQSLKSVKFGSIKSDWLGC
The experiment is described as follows: biochemical. The settings on record: fluorogenic MCA-peptide substrate, pH 7.5, room temperature. The method, boiled down: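 Activated (APMA or trypsin) recombinant human MMP-2, from transfected expressing cells, incubated at room temperature with 4 uM fluorogenic substrate MCA-Pro-Leu-Gly-Leu-Dpa-Ala-Arg-NH2 and hydroxamate inhibitor.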

In another experiment the target is T2, Recombinant human MMP-13 (Homo sapiens, UniProt P45452).
T2 construct: made in house; host or cells: baculovirus / insect cells
The experiment is described as follows: biochemical. The settings on record: fluorogenic MCA-peptide substrate, pH 7.5, room temperature; read-out: MMP-13 IC50. The method, boiled down: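 APMA-activated MMP (proenzyme purified on heparin agarose and chelating zinc columns) incubated at room temperature with 4 uM fluorogenic MCA-ProLeuGlyLeuDpaAlaArgNH2 substrate. Inhibition read as reduced fluorescence versus inhibitor concentration relative to a DMSO control, giving IC50.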

The target of another experiment is T3, Recombinant human MMP-1 (Homo sapiens, UniProt P03956).
T3 construct: made in house; host or cells: transfected HT-1080 cells
T3 sequence (P03956 100-469): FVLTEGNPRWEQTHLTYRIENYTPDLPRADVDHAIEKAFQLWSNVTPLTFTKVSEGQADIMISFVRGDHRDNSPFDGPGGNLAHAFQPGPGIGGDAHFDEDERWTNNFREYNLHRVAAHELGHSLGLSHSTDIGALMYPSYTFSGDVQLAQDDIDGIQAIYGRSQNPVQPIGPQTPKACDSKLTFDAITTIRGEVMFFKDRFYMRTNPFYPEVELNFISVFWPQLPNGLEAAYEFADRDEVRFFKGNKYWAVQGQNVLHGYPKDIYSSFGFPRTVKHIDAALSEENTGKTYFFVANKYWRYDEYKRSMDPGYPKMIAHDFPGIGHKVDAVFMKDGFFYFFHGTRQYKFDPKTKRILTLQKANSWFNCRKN
As to the kind of experiment: biochemical. The settings on record: fluorogenic MCA-peptide substrate, pH 7.5, room temperature. The method, boiled down: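 Recombinant human MMP-1 from transfected HT-1080 cells, APMA-activated and hydroxamate-column purified, was incubated at room temperature with 4 uM MCA-ProLeuGlyLeuDpaAlaArgNH2 fluorogenic substrate. Inhibition taken as fall in fluorescence versus inhibitor concentration, giving IC50.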

Regarding `CNC(=O)[C@@H](NC(=O)[C@H](CC(C)C)[C@H](O)C(=O)NO)C(C)(C)C` [Marimastat], the “effect on cancer-specific antigens used as surrogate markers for biological activity” value in experiment [1] was “dose-related reduction in the rise of cancer-specific antigens”.

In the case of `O=C(c1ccc(CCC2CCCC2)cc1)C1CCN(c2ccc(S(=O)(=O)C3(C(=O)NO)CCOCC3)cc2)CC1` [Example 381], the IC50 is 640 nM on Recombinant human MMP-2 (read-out: MMP-2 IC50), 3.5 nM on Recombinant human MMP-13 and > 10000 nM on Recombinant human MMP-1.

Consider `CCC(CC)Cc1ccc(C(=O)C2CCN(c3ccc(S(=O)(=O)C4(C(=O)NO)CCN(CC)CC4)cc3)CC2)cc1` [Example 234], for which the IC50 on Recombinant human MMP-2 (read-out: MMP-2 IC50) is 2440 nM; on Recombinant human MMP-13, 7.5 nM; at Recombinant human MMP-1 it was > 10000 nM.

On to `COCCN1CCC(C(=O)NO)(S(=O)(=O)c2ccc(N3CCC(C(=O)c4ccc(CC(C)CO)cc4)CC3)cc2)CC1` (stereo not shown) [Example 231], for which the IC50 on Recombinant human MMP-2 (read-out: MMP-2 IC50) was 39.4 nM; at Recombinant human MMP-13, 0.5 nM; on Recombinant human MMP-1, > 10000 nM.

For the molecule `CCN1CCC(C(=O)NO)(S(=O)(=O)c2ccc(N3CCC(C(=O)c4ccc(CCCC(C)C)cc4)CC3)cc2)CC1` [Example 236], the IC50 at Recombinant human MMP-2 (read-out: MMP-2 IC50) is 1850 nM; at Recombinant human MMP-13, 1.5 nM; at Recombinant human MMP-1, > 10000 nM.

For `O=C(C1CCN(c2ccc(S(=O)(=O)C3(C(=O)NO)CCOCC3)cc2)CC1)N1CCN(C2CCCC2)CC1` [Example 14], the IC50 was > 10000 nM on Recombinant human MMP-2 (read-out: MMP-2 IC50), 45 nM at Recombinant human MMP-13 and > 10000 nM at Recombinant human MMP-1.

As to `CC(=O)N1CCN(C(=O)C2CCN(c3ccc(S(=O)(=O)C4(C(=O)NO)CCOCC4)cc3)CC2)CC1` [Example 8], the IC50 is 2500 nM at Recombinant human MMP-2 (MMP-2 IC50(nM)), 50 nM at Recombinant human MMP-13 and > 10000 nM on Recombinant human MMP-1.

Consider `CCN1CCC(C(=O)NO)(S(=O)(=O)c2ccc(N3CCC(C(=O)c4ccc(CCC5CCCC5)cc4)CC3)cc2)CC1` [Example 237], for which the figures for the IC50 on Recombinant human MMP-2 (read-out: MMP-2 IC50), on Recombinant human MMP-13 and on Recombinant human MMP-1 were 1910 nM, 2.1 nM and > 10000 nM, respectively.

Consider `COCCN1CCC(C(=O)NO)(S(=O)(=O)c2ccc(N3CCC(c4ccc(Cl)cc4)CC3)cc2)CC1` [Example 271], for which the figures for the IC50 at Recombinant human MMP-2 (read-out: MMP-2 IC50), on Recombinant human MMP-13 and at Recombinant human MMP-1 were 1.7 nM, 0.8 nM and > 10000 nM, respectively.

Take `COCCN1CCC(C(=O)NO)(S(=O)(=O)c2ccc(N3CCC(C(=O)c4ccc(CN(C)C)s4)CC3)cc2)CC1` [Example 223]: the IC50 is 80.4 nM on Recombinant human MMP-2 (read-out: MMP-2 IC50), 2.5 nM on Recombinant human MMP-13 and > 10000 nM at Recombinant human MMP-1.

Regarding `C=CCN1CCC(C(=O)NO)(S(=O)(=O)c2ccc(N3CCC(C(=O)c4ccc5ccccc5c4)CC3)cc2)CC1` [Example 160], the IC50 at Recombinant human MMP-2 (read-out: MMP-2 IC50) is 198 nM; on Recombinant human MMP-13, 0.4 nM; at Recombinant human MMP-1, > 10000 nM.

Regarding `COc1ccccc1N1CCN(C(=O)C2CCN(c3ccc(S(=O)(=O)C4(C(=O)NO)CCOCC4)cc3)CC2)CC1` [Example 7], the IC50 is 4500 nM on Recombinant human MMP-2 (read-out: MMP-2 IC50), 18 nM at Recombinant human MMP-13 and > 10000 nM on Recombinant human MMP-1.

In the case of `C#CCN1CCC(C(=O)NO)(S(=O)(=O)c2ccc(N3CCC(C(=O)c4cccc(OC)c4)CC3)cc2)CC1` [Example 155], the IC50 at Recombinant human MMP-2 (read-out: MMP-2 IC50) is 43.8 nM; at Recombinant human MMP-13, 1.4 nM; on Recombinant human MMP-1, > 10000 nM.

With `CCOC(=O)CN1CCN(C(=O)C2CCN(c3ccc(S(=O)(=O)C4(C(=O)NO)CCOCC4)cc3)CC2)CC1` [Example 11], the IC50 was 2700 nM at Recombinant human MMP-2 (read-out: MMP-2 IC50), 37 nM at Recombinant human MMP-13 and > 10000 nM at Recombinant human MMP-1.

In the case of `COCCN1CCC(C(=O)NO)(S(=O)(=O)c2ccc(N3CCC(C(=O)c4ccc(CC5CCC5)cc4)CC3)cc2)CC1` [Example 201], the IC50 was 6320 nM at Recombinant human MMP-2 (read-out: MMP-2 IC50), 0.2 nM on Recombinant human MMP-13 and > 10000 nM at Recombinant human MMP-1.

Turning to `CCc1ccc(C(=O)C2CCN(c3ccc(S(=O)(=O)C4(C(=O)NO)CCN(S(C)(=O)=O)CC4)cc3)CC2)cc1` [Example 220], the figures for the IC50 on Recombinant human MMP-2 (read-out: MMP-2 IC50), at Recombinant human MMP-13 and on Recombinant human MMP-1 were 290 nM, 1.7 nM and > 10000 nM, respectively.

As to `CCN1CCC(C(=O)NO)(S(=O)(=O)c2ccc(N3CCC(C(=O)c4ccc(CC5CC5)cc4)CC3)cc2)CC1` [Example 254], the figures for the IC50 on Recombinant human MMP-2 (read-out: MMP-2 IC50), on Recombinant human MMP-13 and at Recombinant human MMP-1 were 132 nM, 1.3 nM and > 10000 nM, respectively.

Regarding `C=CCN1CCC(C(=O)NO)(S(=O)(=O)c2ccc(N3CCC(C(=O)c4ccc(Cl)cc4)CC3)cc2)CC1` [Example 180], the IC50 was 52.7 nM on Recombinant human MMP-2 (read-out: MMP-2 IC50), 0.3 nM on Recombinant human MMP-13 and > 10000 nM on Recombinant human MMP-1.

For `O=C(NO)C1(S(=O)(=O)c2ccc(N3CCC(c4ccc(Cl)cc4)CC3)cc2)CCN(C2CC2)CC1` [Example 270], the 50% inhibitory concentration (IC50) on Recombinant human MMP-2 (read-out: MMP-2 IC50) was 1.9 nM; at Recombinant human MMP-13 it was 1.1 nM; at Recombinant human MMP-1 it was > 10000 nM.

Regarding `COCCN1CCC(C(=O)NO)(S(=O)(=O)c2ccc(N3CCC(C(=O)c4ccc(OC(C)C)c(C)c4)CC3)cc2)CC1` [Example 191], the IC50 on Recombinant human MMP-2 (read-out: MMP-2 IC50) was 2290 nM; at Recombinant human MMP-13, 3 nM; on Recombinant human MMP-1, > 10000 nM.

`O=C(c1ccc(Br)cc1)C1CCN(c2ccc(S(=O)(=O)C3(C(=O)NO)CCOCC3)cc2)CC1` [Example 378]: the IC50 at Recombinant human MMP-2 (read-out: MMP-2 IC50) was 28.4 nM; at Recombinant human MMP-13, 0.3 nM; on Recombinant human MMP-1, > 10000 nM.

In the case of `Cc1ccc(C(=O)C2CCN(c3ccc(S(=O)(=O)C4(C(=O)NO)CCN(CC5CC5)CC4)cc3)CC2)cc1` [Example 210], the IC50 at Recombinant human MMP-2 (read-out: MMP-2 IC50) was 13.1 nM; on Recombinant human MMP-13, 1.1 nM; on Recombinant human MMP-1, > 10000 nM.

On to `C#CCN1CCC(C(=O)NO)(S(=O)(=O)c2ccc(N3CCC(C(=O)c4ccc5ccccc5c4)CC3)cc2)CC1` [Example 175], for which the IC50 was 137 nM at Recombinant human MMP-2 (read-out: MMP-2 IC50), 0.7 nM at Recombinant human MMP-13 and > 10000 nM at Recombinant human MMP-1.

Regarding `O=C(c1ccc(Cl)cc1)C1CCN(c2ccc(S(=O)(=O)C3(C(=O)NO)CCN(CC4CC4)CC3)cc2)CC1` [Example 123], the figures for the IC50 at Recombinant human MMP-2 (read-out: MMP-2 IC50), on Recombinant human MMP-13 and at Recombinant human MMP-1 were 46.3 nM, 0.1 nM and > 10000 nM, respectively.

Regarding `COCCN1CCC(C(=O)NO)(S(=O)(=O)c2ccc(N3CCC(C(=O)c4ccc(CCC(C)C)cc4)CC3)cc2)CC1` [Example 246], the IC50 was 2710 nM on Recombinant human MMP-2 (read-out: MMP-2 IC50), 1 nM on Recombinant human MMP-13 and > 10000 nM at Recombinant human MMP-1.

`COCCN1CCC(C(=O)NO)(S(=O)(=O)c2ccc(N3CCC(C(=O)c4ccc(CCCC(C)C)cc4)CC3)cc2)CC1` [Example 226]: the IC50 on Recombinant human MMP-2 (read-out: MMP-2 IC50) was 1020 nM; on Recombinant human MMP-13 it was < 0.1 nM; at Recombinant human MMP-1 it was > 10000 nM.

For the molecule `CCCCc1ccc(C(=O)C2CCN(c3ccc(S(=O)(=O)C4(C(=O)NO)CCN(CCOC)CC4)cc3)CC2)s1` [Example 121], the IC50 on Recombinant human MMP-2 (read-out: MMP-2 IC50) is 58.8 nM; on Recombinant human MMP-13, 0.1 nM; on Recombinant human MMP-1 it was > 10000 nM.

`COCCN1CCC(C(=O)NO)(S(=O)(=O)c2ccc(N3CCC(C(=O)c4ccc(COCC(C)C)s4)CC3)cc2)CC1` [Example 243]: the values for the IC50 on Recombinant human MMP-2 (read-out: MMP-2 IC50), on Recombinant human MMP-13 and at Recombinant human MMP-1 were 56 nM, 0.3 nM and > 10000 nM, respectively.

In the case of `CCCc1ccc(C(=O)C2CCN(c3ccc(S(=O)(=O)C4(C(=O)NO)CCN(CC)CC4)cc3)CC2)cc1` [Example 170], the IC50 was 134 nM on Recombinant human MMP-2 (read-out: MMP-2 IC50), 1.3 nM at Recombinant human MMP-13 and > 10000 nM at Recombinant human MMP-1.
